Results published in patent EP0133795B1 (THE McLEAN HOSPITAL CORPORATION, priority 1983, dated 1985).
Counter-ions that a name gives are not always drawn.

Columns and labels:
self-stimulation reward = assay: Self-stimulation reward test; format: in vivo, rats; conditions: for Max. DSSR: DSSR 0.3 designated as 100%
Source text: The procedure measured the capacity of a given pharmacological agent to inhibit rats from receiving stimulating currents provided by electrodes implanted in their brains (lateral hypothalamus), Stellar et al, Pharmacol. Biochem. & Behav., 18,433-442 (1983). The animals will press a lever to receive a current from the implanted electrode in preference to all else. The rate at which they press the lever depends on the intensity of the current (reward) that is being produced by the electrode. The intensity of the current is varied by raising the frequency at which […] pulses (0.1 msec duration) are delivered during a 0.5 sec time span in response to a lever press. A plot of the log of the frequency of the delivered pulses vs. the rate of lever presses for an animal gives a self-stimulation reward curve. Injection of a drug which has a tranquilizing effect shifts such a curve to higher frequencies. The shift of this curve (measured at the halfway point) gives a parameter which is expressed as the "Depression of the Self-Stimulation Reward" or DSSR. The maximum DSSR value obtained for the most powerful neutoleptics and tranquilizing compounds tested so far, seldom exceeds 0.3. This is designated as 100%. In the actual tests, the maximum DSSR value obtained for a given dose of drug and the half-life time [duration half-life (DHL)] of its return to 0% (the control state) was measured.

[1] = test system: bicuculline-induced epileptic seizures; assay: Delay of onset of bicuculline-induced seizures (anticonvulsant activity); format: in vivo, mouse; conditions: for In Vivo Delay of Time of Onset of Bicuculline-induced seizures: graded 0-5; for effect on bicuculline-induced seizures (in words): mice
Method: In a second behavioral test, the ability of a substance to prevent or delay the onset of biculline-induced epileptic seizures was measured. […] At 24 hr after i.p. injection of the cholesteryl derivative at a dose of 30 mg/kg (64 pmol/kg), the onset of seizures was delayed by 30% after an acute i.p. injection of bicuculline at 0.3 mg/kg. […] The dexamethasone and butyl esters had no effect.
The compounds were also injected i.p. at 1, 6 and 24 hr before the administration of bicuculline (0.3 mg/kg) s.c. The latency to the onset of generalized tonic-clonic epileptic seizures and the protection against the lethality of bicuculline were measured and evaluated as a percent of the data for vehicle-injected controls. No significant changes were obtained at the 1 hr and 6 hr time points. At the 24 hr time, however, some compounds delayed while others accelerated the onset of seizures.
The effect of the compound to delay the onset of a bicuculline-induced seizures was evaluated.
The ability of a substance to delay the onset of bicuculline-induced epileptic seizures in the mouse was measured (Table X). […] At 24 hr after i.p. injection of the cholesteryl derivative (6) at a dose of 30 mg/kg (64 pmol/kg), the onset of seizures was delayed by 30% (as compared to saline controls) after an acute i.p. injection of bicuculline at 0.3 mg/kg. […] The dexamethasone and butyl esters had no effect on seizures in mice.

[2] = Comparative brain/liver uptake of 14C-labeled compounds (Brain Penetration Index); conditions: for increase of 5-min BPI over GABA: 5 min after s.c. injection, relative to GABA
Method: The criterion used herein for measuring the extent to which a compound, from which the radical A is derived, crosses the blood-brain barrier is based on the uptake of this compound by the brain relative to its uptake by the liver. […] Measurements of the quantity of a compound present in brain and liver at 5 minutes after a subcutaneous (s.c.) injection were used to calculate a Brain Penetration Index (BPI), with the equation: [formula]
This is the amount of the compound present per gram of brain tissue as a percent of the amount per gram of liver tissue.
This procedure has the advantage that even for a sparingly soluble lipid ester, which tends to remain largely at the site of the injection and slowly diffuse into the circulation, its level in the liver will reflect the amount available rather than the initial dose injected.
The uptake of a ^14C-labeled compound into brain was compared with the uptake into liver of the same animal.
All determinations were carried out at 5 min after injection. The volumes of the injected doses into mice (body weight, 18-24 g) for the i.v., i.p., and s.c. doses were 0.15, 0.3 and 0.5 ml, respectively. […] Each tissue was homogenized in 8 ml of pyridine in a glass homogenizer.
Each labeled test compound was injected as a solution in 0.5 ml of saline (Compound 7) or in 25% propylene glycol in water (Compounds 1, 5, 6) subcutaneously (s.c.) into young adult Balb/c mice (18-24 g body weight). After 5 min (or longer) animals were sacrificed and the brain and liver removed, weighed and homogenized respectively in 8 ml and 10 ml of brain protein solvent (1 % (w/v) sodium dodecyl sulfate in 6 M urea and 19 mM EDTA, pH 7.4, 0.03 M phosphate). Aliquots (0.5 ml) of the homogenates were mixed with 10 ml of Aquasol 2 (New England Nuclear) and counted in a Beckman liquid scintillation counter. The total uptake of each compound per g brain and liver tissue was calculated. The proportion of uptake into brain as compared to liver (100%) of the same animal was designated as the Brain Penetration Index (BPI), expressed as a percentage typically at 5 min after injection.
Each of the ^14C-labeled Compounds 26, 28 and 30 were in 125 µl of the propylene glycol diluted with water up to 0.5 ml, and then injected subcutaneously into test Balb/c mice (20 ± 2 g weight). After 5 min the animals were sacrificed and the brain and liver were removed, weighed and homogenized in 8 ml and 10 ml of brain protein solvent, respectively. Next 0.5 ml aliquots were mixed with 10 ml of Aquasol 2 (New England Nuclear Corp., Boston, MA) and counted in a Beckman liquid scintillation counter. The data for the label in each tissue were used to calculate the total quantity of the compound present in brain and liver per gram of tissue. The ratio of the amount in brain as a percent of that present in liver at 5 min was taken as the Brain Penetration Index (BPI). Measurements at longer uptake times were also obtained to evaluate the accumulation of the compounds in the brain.

[3] = test system: general motor activity of mice; assay: General locomotor activity of mice (Stoelting electronic activity monitor); format: in vivo, Balb/c mice; conditions: for activity in the general motor activity test (in words): i.p., mice
Method: The effect of intraperitoneal (i.p.) injections of test compounds on the general motor activity of mice during a 60-min period was determined in a Stoelting electronic activity monitor. Dose-response curves were obtained from which the half-maximally effective values were calculated and the results are shown in Table V.
The compounds were dissolved in 25% (vols.) propylene glycol in water and injected i.p. into Balb/c mice (18-24 g). Dose-response measurements were obtained for 6 animals per dose or time point. Activity was monitored for 60 min using a Stoelting Electronic Activity Monitor (EAM) apparatus to assess the general motor activity of the animals.
The general locomotor activity of mice was measured in the Stolting activity monitor apparatus during 60 min after an intraperitoneal (i.p.) injection of a test compound.

[4] = n-Octanol/water partition coefficient; format: physicochemical; conditions: n-octanol/water, 5 ml n-octanol / 5 ml water, stirring 18 hours; read-out: KOW: Octanol/Water Partition Coefficient (converted)
Method: A Partition Coefficient was defined by the equation: [formula] representing the amount of the ester taken up per ml of n-octanol relative to the amount of the same compound taken up per ml of water.
The n-octanol/water partition coefficients were obtained from measurements of the distribution of 1, 3, 5 and 6 pmol quantities of each ^14C-labeled compound into a mixture of 5 ml of n-octanol and 5 ml water. At each concentration, the amount of labeled compound in the aqueous and n-octanol phases was calculated from the amount of radioactive material present after stirring for 18 hours.

in vivo = conditions: mouse, brain, sc
CAI pyramidal cells = format: cell-based, Sprague-Dawley rats
Method: Transverse slices of hippocampus (350-375 µm thick) were prepared from Sprague-Dawley rats (200-300 g) and transferred onto a nylon net fixed over a 1.5 ml superfusion chamber. The slices were maintained at 32-33°C in a humidified atmosphere of 95%/5% 02/C02. The standard medium consisted of (in mM): NaCl, 125; KCI, 3.5; CaC12,2; MgS04, 1.5; NaH2PO4, 1; NaHC03, 24; and glucose, 10. Low chloride medium was prepared by substituting sodium isethionate for sodium chloride.
Extracellular potentials were recorded with NaCI-fitted micropipettes, and stimulus pulses were applied through bipolar platinum wire electrodes. The various drugs were dissolved in fresh medium (without glucose and phosphate) and applied to the surface of the tissue by pressure ejection from a micropipette, Sakai, Swartz and Woody, (1979).
The inhibitory effectiveness of various compounds was investigated by measuring their ability to suppress the extracellular population spike recorded from the hippocampal CAI pyramidal layer and elicited by stimulation of stratum radiatum axons. The amplitude of this monosynaptic population spike is essentially proportional to the number of pyramidal cells discharging in response to a stimulus volley, Andersen, Bliss and Skrede, (1971).
The various compounds were applied as droplets to the pyramidal layer approximately 75 µm from the recording electrode. The volume of a single drug application was about 300 picoliters. […] The volume ejected from each pipette was calibrated prior to use by measuring the diameter of the ejected droplet and adjusting the duration of the pressure pulse (usually 100-500 msec) until a standard diameter was reached. A constant droplet volume was used throughout the experiments. Where dose-response information was required, several pipettes with different drug concentrations were used.

[5] = 84 mg/kg, 24 hr pretreatment, bicuculline 0.3 mg/kg, mean ± SEM, n ≥ 6
[6] = 70 μmol/kg s.c., 5 min, mice, mean ± S.E.M. (n = 3)
[7] = Table IX summary, 5-min Brain Penetration Index
[8] = Table IV, 380 μmol/kg s.c., 5 min, mice, mean ± S.E.M. (n = 3)

## 1-Linolenoyl 2-gamma-aminobutyryl 3-gamma-vinyl-gamma-aminobutyryl glycerol dihydrochloride [Compound 40]
self-stimulation reward; dose 16 μm/kg, Depression of the Self-Stimulation Reward
  Max. DSSR: 90
self-stimulation reward; dose 16 μm/kg, duration half-life of return to 0%
  DHL: 30 min

## CC(C)CCC[C@@H](C)[C@H]1CC[C@H]2[C@@H]3CC=C4C[C@@H](O)CC[C@]4(C)[C@H]3CC[C@]12C [cholesterol, reference compound]
[1]; [5]
  Onset of seizures: % Saline Control: 118 ± 6 % Saline Control
  Survival Time: % Saline Control: 110 ± 7 % Saline Control

## C=CC(N)CCC(=O)O[C@H]1CC[C@@]2(C)C(=CC[C@H]3[C@@H]4CC[C@H]([C@H](C)CCCC(C)C)[C@@]4(C)CC[C@@H]32)C1 (stereo partly shown) [Compound 33, Cholesteryl gamma-vinyl gamma-aminobutyrate hydrochloride]
self-stimulation reward; dose 40 μm/kg
  Max. DSSR: 83
self-stimulation reward; dose 40 μm/kg, duration half-life of return to 0%
  DHL: 1440 to 2880 min

## C[C@@H]1C[C@H]2[C@@H]3CCC4=CC(=O)C=C[C@]4(C)[C@@]3(F)[C@@H](O)C[C@]2(C)[C@@]1(O)C(=O)COC(=O)CCCN [Compound 7, Dexamethasone-21-gamma-aminobutyrate]
[2]; [6]
  (BRAIN): 8.7 ± 1 nmol/g
  (LIVER): 10.8 ± 2 nmol/g
  BPI: 81 ± 20%
[2]; 70 μmol/kg s.c., 15 min, mice
  (BRAIN): 21.5 nmol/g
  (LIVER): 29.0 nmol/g
  BPI: 74%
[2]
  increase of 5-min BPI over GABA: 81 fold
[2]; [7]
  BPI: 81
[3]; graded 0-5
  In Vivo Inhibition of General Motor Activity: 0
[3]
  activity in the general motor activity test (in words): not active
[1]
  In Vivo Delay of Time of Onset of Bicuculline-induced seizures: 0
  effect on bicuculline-induced seizures (in words): no effect
[4]
  logP at 18 h: -0.0458

## CCCCOC(=O)CCCN [Compound 1, Butyl Ester of GABA]
[2]; 380 μmol/kg s.c., 60 min, mice
  (BRAIN): 14.4 nmol/g
  (LIVER): 13.7 nmol/g
  BPI: 105%
[2]
  increase of 5-min BPI over GABA: 74 fold
[2]; [8]
  (BRAIN): 19.2 ± 0.3 nmol/g
  (LIVER): 26.0 ± 1.6 nmol/g
  BPI: 74 ± 3.4%
[2]; [7]
  BPI: 74
[3]
  activity in the general motor activity test (in words): not active
[1]
  In Vivo Delay of Time of Onset of Bicuculline-induced seizures: 1
  effect on bicuculline-induced seizures (in words): no effect
In vivo
  remaining at 1 h: 4%

## C=CC(N)CCC(=O)O (stereo not shown) [gamma-vinyl GABA, reference compound]
self-stimulation reward; dose 31 μm/kg
  Max. DSSR: 0
self-stimulation reward; dose 31 μm/kg, duration half-life
  DHL: 0

## NCc1cc(=O)[nH]o1 [muscimol]
CAI pyramidal cells
  duration of effect relative to a comparably effective dose of GABA: roughly 100 times
  effect with picrotoxin (10 µM) in the medium or low chloride medium: little effect
CAI pyramidal cells; concentration in the drug pipette
  doses required relative to GABA for effects of comparable magnitude: nearly a thousand-fold lower
CAI pyramidal cells; droplets applied to the CAI pyramidal layer
  inhibition of the evoked population spike: dose-dependent inhibition
